system: PDE1; experiment: In vitro HTRF PDE1 inhibition assay; type: biochemical; conditions: HTRF cGMP assay, 100 nM cyclic GMP, PDE (1A3, 1B or 1C) with calmodulin, 45 minutes at 37° C.; isoform of the tabulated values not stated
Summary of the method: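 HTRF cGMP competition assay: PDE1A3, 1B or 1C with calmodulin acting on 100 nM cGMP in 1% DMSO, pH 7.4 buffer with Ca2+ and Mg2+, 45 min at 37 °C. Remaining cGMP detected with d2-cGMP and anti-cGMP cryptate (665/615 nm); IC50 reported as banded categories.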

IC50 [µM] | Structure (SMILES)
< 1 | O=c1c2cnc(C3CCOC3)n2nc2n1CCN(c1ccccc1)C2 (racemic) [Compound I-229, (±)-7-Phenyl-3-(tetrahydrofuran-3-yl)-8,9-dihydro-6H-imidazo[5,1-f]pyrazino[2,1-c][1,2,4]triazin-11(7H)-one]
1 to 10 | CC(C)n1ncc2c(=O)n3c(nc21)CN(c1ccccc1)CC3 [Compound I-55, 1-Isopropyl-8-phenyl-6,7,8,9-tetrahydropyrazino[1,2-a]pyrazolo[3,4-d]pyrimidin-4(1H)-one]
1 to 10 | CC(C)Cc1nnc2c(=O)n3c(nn12)CN(CCc1ccccc1)CC3 [Compound I-227, 3-Isobutyl-7-phenethyl-8,9-dihydro-6H-pyrazino[2,1-c][1,2,4]triazolo[3,4-f][1,2,4]triazin-11(7H)-one]
< 1 | COc1ccc(CN2CCn3c(nc4c(cnn4C(C)C)c3=O)C2)cc1 [Compound I-82, 1-Isopropyl-8-(4-methoxybenzyl)-6,7,8,9-tetrahydropyrazino[1,2-a]pyrazolo[3,4-d]pyrimidin-4(1H)-one]
> 10 | COc1ccc(CN2CCn3c(nc4c(c(C)nn4C4CCCC4)c3=O)C2)cc1 [Compound I-112, 1-Cyclopentyl-8-(4-methoxybenzyl)-3-methyl-6,7,8,9-tetrahydropyrazino[1,2-d]pyrazolo[3,4-d]pyrimidin-4(1H)-one]
< 1 | O=c1c2cnc(C3CCCC3)n2nc2n1CCN(c1ccc(F)cc1)C2 [Compound I-183, 3-Cyclopentyl-7-(4-fluorophenyl)-8,9-dihydro-6H-imidazo[5,1-f]pyrazino[2,1-c][1,2,4]triazin-11(7H)-one]
> 10 | CC1NCCn2c1nc1c(cnn1C)c2=O (racemic) [Compound I-3, (±)-1,9-Dimethyl-6,7,8,9-tetrahydropyrazino[1,2-a]pyrazolo[3,4-d]pyrimidin-4(1H)-one]
> 10 | CC(C)n1ncc2c(=O)n3c(nc21)CN(Cc1ccccc1)C(c1ccccc1)C3 (racemic) [Compound I-108, (±)-8-Benzyl-1-isopropyl-7-phenyl-6,7,8,9-tetrahydropyrazino[1,2-a]pyrazolo[3,4-d]pyrimidin-4(1H)-one]
> 10 | CC1c2nc3c(cnn3-c3ccccc3)c(=O)n2CCN1C (racemic) [Compound I-22, (±)-8,9-Dimethyl-1-phenyl-6,7,8,9-tetrahydropyrazino[1,2-a]pyrazolo[3,4-d]pyrimidin-4(1H)-one]
1 to 10 | CCCn1ncc2c(=O)n3c(nc21)CN(Cc1cccc(OC)c1)CC3 [Compound I-254, 8-(3-Methoxybenzyl)-1-propyl-6,7,8,9-tetrahydropyrazino[1,2-a]pyrazolo[3,4-d]pyrimidin-4(1H)-one]
> 10 | CN1CCn2c(nc3[nH]ncc3c2=O)C1Cc1ccccc1 (racemic) [Compound I-23, (±)-9-Benzyl-8-methyl-6,7,8,9-tetrahydropyrazino[1,2-a]pyrazolo[3,4-d]pyrimidin-4(1H)-one]
1 to 10 | COc1ccc(CN2CCCn3c(nc4c(cnn4C(C)C)c3=O)C2)cc1 [Compound I-156, 1-Isopropyl-9-(4-methoxybenzyl)-7,8,9,10-tetrahydro-1H-pyrazolo[3′,4′:4,5]pyrimido[1,2-a][1,4]diazepin-4(6H)-one]
< 1 | O=c1c2cnc(C3CCOCC3)n2nc2n1CCN(c1ccc(Cl)cc1)C2 [Compound I-236, 7-(4-Chlorophenyl)-3-(tetrahydro-2H-pyran-4-yl)-8,9-dihydro-6H-imidazo[5,1-f]pyrazino[2,1-c][1,2,4]triazin-11(7H)-one]
< 1 | COc1cccc(CN2CCn3c(nc4c(cnn4C4CCCC4)c3=O)C2)c1 [Compound I-81, 1-Cyclopentyl-8-(3-methoxybenzyl)-6,7,8,9-tetrahydropyrazino[1,2-a]pyrazolo[3,4-d]pyrimidin-4(1H)-one]
1 to 10 | Cc1cnc(CN2CCn3c(nn4c(C(C)C)ncc4c3=O)C2)nc1 [Compound I-200]

Reference: US20160083391A1, “TRICYCLIC PIPERAZINE DERIVATIVE” (Sunovion Pharmaceuticals Inc., priority 2014, published 2016)
